One assay concerns the target sLFA-1/ICAM-1 (Homo sapiens, UniProt P05107+P20701, DEL701-769). Kind of assay: sLFA-1/ICAM-1 ELISA. It counts as binding. Conditions: sLFA-1 coated plates, 5dICAM-Fc binding, ELISA; read-out: LFA-1/ICAM (IC50). The method, then:
(§1) sLFA-1/ICAM-1 ELISA and Mac-1/ICAM-1 ELISA
(§2) Plates were coated with either 50 μl/well of 2.0 ug/ml solution of sLFA-1 or Mac-1 receptor in divalent cation buffer (1 mM MnCl2, 0.14M NaCl, 20 mM HEPES pH 7.2) at 4° C. overnight. Two hundred fifty μl of blocking buffer (1% BSA in divalent cation buffer) was added to each well 1 hour at 37° C. Plates were washed 3 times with wash buffer (TBS/0.05% Tween-20/1 mM MnCl2). The compound to be tested was solubilized in DMSO. A series of 1:3 dilutions were performed to achieve a concentration range of 0.45 nM-3 uM. Fifty μl of binding buffer (0.5% BSA in divalent cation buffer)/1% DMSO and 50 μl of the solutions to be tested were added to the appropriate wells and incubated for 1 hour. Fifty μl of 5dICAM-Fc (27 ng/ml) was added to the appropriate wells and 50 μl binding buffer was added to non-specific binding wells and incubated for 2 hours and washed. One hundred μl of 1:4000 HRP-goat anti-huIgG was added to each well and incubated for 1 hour and washed. One hundred μl of 1:1 TMB solution was added to each well and developed for 20 min at room temperature. Color development was stopped by adding 100 μl H3PO4 to each well. Absorbance was measured at 450 nm.
In general terms: ELISA stands for enzyme-linked immunosorbent assay.

In another assay the target is Mac-1/ICAM-1 (Homo sapiens, UniProt P05107+P11215). Put plainly: Mac-1/ICAM-1 ELISA. Conditions: Mac-1 coated plates, 5dICAM-Fc binding. The protocol:
as §1, §2

Assay [1] relates to PBMC's from two healthy donors. Kind of assay: Human Mixed Lymphocyte Reaction (hMLR). It counts as cell-based. Conditions: 3H-thymidine incorporation, read-out: human MLR (IC50). The method, then: Human Mixed Lymphocyte Reaction (hMLR)
PBMC's were isolated from two healthy donors by Ficoll gradient. Cells were resuspended with 4 mL assay media and counted with a Coulter Counter. Both cell populations were resuspended to 1×10^7/mL. Stimulator cells were irradiated for 2.5 min (2000 RAD) in cesium irradiator. 5×10^5 cells were added to duplicate wells of the plate. Included were quadruplicate wells receiving responder cells alone and stimulator cells alone. The compound to be tested was solubilized in DMSO. A series of 1:3 dilutions were performed to achieve a concentration range of 0.45 nM-3 uM. One hundred μl of the solutions to be tested were added to the cell plate (100 μl of 2% DMSO/media added to control wells). Plates were then incubated for 2.5 days at 37° C. with 5% CO2. Plates were pulsed with 50 μl/well 3H-thymidine at 0.5 uCi/well then incubated for 6 hours at 37° C. with 5% CO2. Cells were harvested using Cell Harvester (TomTec) and counted on TopCount (Perkin Elmer).

Consider nine compounds from patent US20120270875A1, “PYRIMIDINE AMIDE COMPOUNDS” (priority 2011, published 2012).

Chain of Mac-1/ICAM-1 (P05107 23-769, other chains not shown): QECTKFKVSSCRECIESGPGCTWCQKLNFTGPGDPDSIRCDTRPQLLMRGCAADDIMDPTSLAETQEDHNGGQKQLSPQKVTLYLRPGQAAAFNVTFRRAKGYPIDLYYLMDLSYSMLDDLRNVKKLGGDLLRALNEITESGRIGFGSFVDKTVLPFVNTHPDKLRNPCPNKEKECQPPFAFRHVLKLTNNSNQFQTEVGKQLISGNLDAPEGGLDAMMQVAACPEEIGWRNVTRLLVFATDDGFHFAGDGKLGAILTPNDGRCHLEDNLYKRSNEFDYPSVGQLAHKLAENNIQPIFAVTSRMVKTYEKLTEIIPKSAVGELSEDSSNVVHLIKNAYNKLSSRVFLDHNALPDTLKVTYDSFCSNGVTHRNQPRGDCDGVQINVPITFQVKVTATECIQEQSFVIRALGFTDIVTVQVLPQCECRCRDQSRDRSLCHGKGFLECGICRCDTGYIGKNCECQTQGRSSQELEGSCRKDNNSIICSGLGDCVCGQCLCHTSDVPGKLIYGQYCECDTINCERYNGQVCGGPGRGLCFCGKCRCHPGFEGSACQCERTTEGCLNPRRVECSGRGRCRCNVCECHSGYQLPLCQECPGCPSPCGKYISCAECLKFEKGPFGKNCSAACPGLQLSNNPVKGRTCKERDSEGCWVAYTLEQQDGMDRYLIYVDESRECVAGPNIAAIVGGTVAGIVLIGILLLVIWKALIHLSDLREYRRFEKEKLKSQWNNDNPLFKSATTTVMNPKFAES
Chain of sLFA-1/ICAM-1 (P20701 26-1090 limits assumed, stated change not applied): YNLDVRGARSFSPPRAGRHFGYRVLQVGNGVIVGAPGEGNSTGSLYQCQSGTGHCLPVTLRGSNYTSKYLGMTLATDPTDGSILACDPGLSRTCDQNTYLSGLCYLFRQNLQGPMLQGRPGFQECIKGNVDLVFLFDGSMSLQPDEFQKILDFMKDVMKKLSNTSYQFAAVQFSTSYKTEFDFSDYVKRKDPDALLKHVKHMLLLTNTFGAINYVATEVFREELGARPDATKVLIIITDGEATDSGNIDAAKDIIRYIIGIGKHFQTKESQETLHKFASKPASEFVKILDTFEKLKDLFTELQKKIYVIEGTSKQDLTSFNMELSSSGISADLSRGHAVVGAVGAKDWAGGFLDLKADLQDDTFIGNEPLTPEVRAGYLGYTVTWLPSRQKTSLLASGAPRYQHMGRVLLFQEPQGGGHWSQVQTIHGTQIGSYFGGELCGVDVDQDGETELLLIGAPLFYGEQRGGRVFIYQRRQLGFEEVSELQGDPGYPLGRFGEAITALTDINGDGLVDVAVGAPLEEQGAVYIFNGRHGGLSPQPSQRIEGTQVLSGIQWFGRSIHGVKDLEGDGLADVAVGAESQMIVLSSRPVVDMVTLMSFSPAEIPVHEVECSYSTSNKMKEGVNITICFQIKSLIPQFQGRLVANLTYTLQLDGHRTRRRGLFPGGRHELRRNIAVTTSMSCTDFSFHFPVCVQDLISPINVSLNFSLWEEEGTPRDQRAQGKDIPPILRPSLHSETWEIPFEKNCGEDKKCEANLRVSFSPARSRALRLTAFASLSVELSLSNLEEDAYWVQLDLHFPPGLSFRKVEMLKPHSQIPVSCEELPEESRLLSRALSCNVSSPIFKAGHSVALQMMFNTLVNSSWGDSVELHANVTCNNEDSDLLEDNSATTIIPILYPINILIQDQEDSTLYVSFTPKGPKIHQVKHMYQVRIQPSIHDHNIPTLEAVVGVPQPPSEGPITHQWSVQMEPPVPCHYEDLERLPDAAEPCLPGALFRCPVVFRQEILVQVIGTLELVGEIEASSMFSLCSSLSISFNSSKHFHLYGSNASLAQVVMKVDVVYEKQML
Chain of sLFA-1/ICAM-1 (P05107 23-700 limits assumed, stated change not applied): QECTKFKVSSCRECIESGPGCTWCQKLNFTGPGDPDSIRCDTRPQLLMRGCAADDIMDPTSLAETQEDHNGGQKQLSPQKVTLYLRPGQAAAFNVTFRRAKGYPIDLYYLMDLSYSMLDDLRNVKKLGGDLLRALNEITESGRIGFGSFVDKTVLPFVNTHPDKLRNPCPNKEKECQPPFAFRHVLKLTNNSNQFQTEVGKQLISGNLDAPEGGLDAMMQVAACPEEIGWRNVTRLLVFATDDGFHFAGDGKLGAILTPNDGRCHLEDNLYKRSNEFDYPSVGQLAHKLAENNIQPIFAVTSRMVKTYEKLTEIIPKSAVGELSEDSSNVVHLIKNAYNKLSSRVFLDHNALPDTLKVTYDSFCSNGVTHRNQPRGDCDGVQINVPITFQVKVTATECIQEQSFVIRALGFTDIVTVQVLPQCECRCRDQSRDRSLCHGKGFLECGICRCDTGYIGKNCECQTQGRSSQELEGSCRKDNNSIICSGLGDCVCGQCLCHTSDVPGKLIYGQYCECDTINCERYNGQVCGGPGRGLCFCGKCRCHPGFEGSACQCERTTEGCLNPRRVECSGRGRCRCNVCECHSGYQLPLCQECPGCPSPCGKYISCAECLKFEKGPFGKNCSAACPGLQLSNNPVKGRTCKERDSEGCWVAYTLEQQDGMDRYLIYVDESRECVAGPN

For the compound `Cc1nc(CCCCc2cccc(O)c2)nc(C)c1C(=O)N[C@@H](CNC(=O)c1cccs1)C(=O)O` [Example 1, (S)-2-({2-[4-(3-hydroxy-phenyl)-butyl]-4,6-dimethyl-pyrimidine-5-carbonyl}-amino)-3-[(thiophene-2-carbonyl)-amino]-propionic acid], the results for the IC50 (on sLFA-1/ICAM-1; at Mac-1/ICAM-1; in assay [1]) were 73 nM, 441 nM and 4460 nM, respectively.

As for `Cc1nc(NCC#Cc2cccc(O)c2)nc(C)c1C(=O)N[C@@H](CNC(=O)c1cccs1)C(=O)O` [Example 61, (S)-2-({2-[3-(3-Hydroxy-phenyl)-prop-2-ynylamino]-4,6-dimethyl-pyrimidine-5-carbonyl}-amino)-3-[(thiophene-2-carbonyl)-amino]-propionic acid], the IC50 on sLFA-1/ICAM-1 was determined as 41 nM; at Mac-1/ICAM-1, 55 nM; in assay [1], 1180 nM.

For `Cc1nc(OCCCc2cccc(O)c2)nc(C)c1C(=O)N[C@@H](CNC(=O)c1cccs1)C(=O)O` [Example 3, (S)-2-({2-[3-(3-hydroxy-phenyl)-propoxy]-4,6-dimethyl-pyrimidine-5-carbonyl}-amino)-3-[(thiophene-2-carbonyl)-amino]-propionic acid], the results for the IC50 (at sLFA-1/ICAM-1; at Mac-1/ICAM-1; in assay [1]) were 32 nM, 57 nM and 574 nM, respectively.

For `Cc1nc(NCCCc2cccc(O)c2)nc(C)c1C(=O)N[C@@H](CNC(=O)c1cccc(O)c1)C(=O)O` [Example 83], the results for the IC50 (on sLFA-1/ICAM-1; at Mac-1/ICAM-1; in assay [1]) were 28 nM, 25 nM and 138 nM, respectively.

With `Cc1nc(NCC#Cc2cccc3[nH]ncc23)nc(C)c1C(=O)N[C@@H](CNC(=O)c1cccs1)C(=O)O` [Example 62, (S)-2-({2-[3-(1H-Indazol-4-yl)-prop-2-ynylamino]-4,6-dimethyl-pyrimidine-5-carbonyl}-amino)-3-[(thiophene-2-carbonyl)-amino]-propionic acid], the IC50 was 80 nM at sLFA-1/ICAM-1, 45 nM on Mac-1/ICAM-1 and 3810 nM in assay [1].

With `Cc1nc(NCCCc2cccc(O)c2)nc(C)c1C(=O)N[C@@H](CNC(=O)c1cccs1)C(=O)O` [Example 8, (S)-2-({2-[3-(3-hydroxy-phenyl)-propylamino]-4,6-dimethyl-pyrimidine-5-carbonyl}-amino)3-[(thiophene-2-carbonyl)-amino]-propionic acid], the IC50 on sLFA-1/ICAM-1 stood at 40 nM; on Mac-1/ICAM-1, 120 nM; in assay [1], 678 nM.

Turning to `Cc1nc(NCCCc2cccc(O)c2)nc(C)c1C(=O)N[C@@H](CNC(=O)c1cc(O)cc(O)c1)C(=O)O` [Example 81], the IC50 stood at 12 nM at sLFA-1/ICAM-1, 39 nM on Mac-1/ICAM-1 and 73 nM in assay [1].

Take `Cc1nc(NCCCc2cccc3[nH]ncc23)nc(C)c1C(=O)N[C@@H](CNC(=O)c1cccs1)C(=O)O` [Example 6, (S)-2-({2-[3-(1H-indazol-4-yl)-propylamino]-4,6-dimethyl-pyrimidine-5-carbonyl}-amino)3-[(thiophene-2-carbonyl)-amino]-propionic acid]: the IC50 is 21 nM at sLFA-1/ICAM-1, 20 nM on Mac-1/ICAM-1 and 374 nM in assay [1].

For the compound `Cc1nc(NCCCc2cc(O)cc(F)c2)nc(C)c1C(=O)N[C@@H](CNC(=O)c1cccs1)C(=O)O` [Example 64, (S)-2-({2-[3-(3-Fluoro-5-hydroxy-phenyl)-propylamino]-4,6-dimethyl-pyrimidine-5-carbonyl}-amino)-3-[(thiophene-2-carbonyl)-amino]-propionic acid], the values for the IC50 (at sLFA-1/ICAM-1; on Mac-1/ICAM-1; in assay [1]) were 35 nM, 23 nM and 1350 nM, respectively.
